The source of these data is patent US7534811B2, “Cyclic onium compounds and glucosidase inhibitors” (Kinki University, priority 2003, dated 2009).

The target in assay [1] is T1, small intestinal α-glucosidase (saccharase) (Rattus norvegicus, UniProt P23739).
T1 construct: Rat intestinal brush border membrane vesicles were prepared; from tissue; host or cells: rat small intestine, brush border membrane vesicles
Description: Concentration for 50% inhibition, small intestinal α-glucosidase, sucrose substrate. Conditions: rat intestinal brush border membrane vesicles; substrate sucrose (74 mM); pH6.0; 37° C., 30 minutes; read-out: IC50 (μg/ml) Sucrose (converted). Type of assay: biochemical. How it is done:
(§1) Rat intestinal brush border membrane vesicles were prepared, and a suspension in a 0.1M maleic acid salt buffer solution (pH6.0) was used as small intestinal α-glucosidase (maltase and saccharase).
(§2) 0.05 ml of sample compound solutions of differing concentration were added, respectively, to 0.1 ml of a substrate solution of sucrose (74 mM) and maltose (74 mM), and the solution was preheated at 37° C. for 2 to 3 minutes. 0.05 ml of an enzymatic solution was added thereto and the solution was allowed to incubate for 30 minutes. After incubation, 0.8 ml of water was added thereto and the solution was heated in a boiling water bath for 2 minutes to deactivate the enzyme. Blank was prepared as follows. After the enzymatic solution was added to each sample, water was immediately added, and the resulting mixture was heated in a boiling water bath for 2 minutes to deactivate the enzyme. The amount of d-glucose formed therein was measured using a glucose oxidase method. The substrate and test samples were dissolved in a 0.1M maleic acid buffer solution (pH6.0). The concentrations for 50% inhibition (IC50) were calculated based on the values obtained.

The target in assay [2] is small intestinal α-glucosidase (maltase). Briefly: Concentration for 50% inhibition, small intestinal α-glucosidase, maltose substrate. Type of assay: biochemical. To be noted: rat intestinal brush border membrane vesicles; substrate maltose (74 mM); pH6.0; 37° C., 30 minutes. As for the experimental part: as §1, §2

T1 sequence (P23739 whole entry): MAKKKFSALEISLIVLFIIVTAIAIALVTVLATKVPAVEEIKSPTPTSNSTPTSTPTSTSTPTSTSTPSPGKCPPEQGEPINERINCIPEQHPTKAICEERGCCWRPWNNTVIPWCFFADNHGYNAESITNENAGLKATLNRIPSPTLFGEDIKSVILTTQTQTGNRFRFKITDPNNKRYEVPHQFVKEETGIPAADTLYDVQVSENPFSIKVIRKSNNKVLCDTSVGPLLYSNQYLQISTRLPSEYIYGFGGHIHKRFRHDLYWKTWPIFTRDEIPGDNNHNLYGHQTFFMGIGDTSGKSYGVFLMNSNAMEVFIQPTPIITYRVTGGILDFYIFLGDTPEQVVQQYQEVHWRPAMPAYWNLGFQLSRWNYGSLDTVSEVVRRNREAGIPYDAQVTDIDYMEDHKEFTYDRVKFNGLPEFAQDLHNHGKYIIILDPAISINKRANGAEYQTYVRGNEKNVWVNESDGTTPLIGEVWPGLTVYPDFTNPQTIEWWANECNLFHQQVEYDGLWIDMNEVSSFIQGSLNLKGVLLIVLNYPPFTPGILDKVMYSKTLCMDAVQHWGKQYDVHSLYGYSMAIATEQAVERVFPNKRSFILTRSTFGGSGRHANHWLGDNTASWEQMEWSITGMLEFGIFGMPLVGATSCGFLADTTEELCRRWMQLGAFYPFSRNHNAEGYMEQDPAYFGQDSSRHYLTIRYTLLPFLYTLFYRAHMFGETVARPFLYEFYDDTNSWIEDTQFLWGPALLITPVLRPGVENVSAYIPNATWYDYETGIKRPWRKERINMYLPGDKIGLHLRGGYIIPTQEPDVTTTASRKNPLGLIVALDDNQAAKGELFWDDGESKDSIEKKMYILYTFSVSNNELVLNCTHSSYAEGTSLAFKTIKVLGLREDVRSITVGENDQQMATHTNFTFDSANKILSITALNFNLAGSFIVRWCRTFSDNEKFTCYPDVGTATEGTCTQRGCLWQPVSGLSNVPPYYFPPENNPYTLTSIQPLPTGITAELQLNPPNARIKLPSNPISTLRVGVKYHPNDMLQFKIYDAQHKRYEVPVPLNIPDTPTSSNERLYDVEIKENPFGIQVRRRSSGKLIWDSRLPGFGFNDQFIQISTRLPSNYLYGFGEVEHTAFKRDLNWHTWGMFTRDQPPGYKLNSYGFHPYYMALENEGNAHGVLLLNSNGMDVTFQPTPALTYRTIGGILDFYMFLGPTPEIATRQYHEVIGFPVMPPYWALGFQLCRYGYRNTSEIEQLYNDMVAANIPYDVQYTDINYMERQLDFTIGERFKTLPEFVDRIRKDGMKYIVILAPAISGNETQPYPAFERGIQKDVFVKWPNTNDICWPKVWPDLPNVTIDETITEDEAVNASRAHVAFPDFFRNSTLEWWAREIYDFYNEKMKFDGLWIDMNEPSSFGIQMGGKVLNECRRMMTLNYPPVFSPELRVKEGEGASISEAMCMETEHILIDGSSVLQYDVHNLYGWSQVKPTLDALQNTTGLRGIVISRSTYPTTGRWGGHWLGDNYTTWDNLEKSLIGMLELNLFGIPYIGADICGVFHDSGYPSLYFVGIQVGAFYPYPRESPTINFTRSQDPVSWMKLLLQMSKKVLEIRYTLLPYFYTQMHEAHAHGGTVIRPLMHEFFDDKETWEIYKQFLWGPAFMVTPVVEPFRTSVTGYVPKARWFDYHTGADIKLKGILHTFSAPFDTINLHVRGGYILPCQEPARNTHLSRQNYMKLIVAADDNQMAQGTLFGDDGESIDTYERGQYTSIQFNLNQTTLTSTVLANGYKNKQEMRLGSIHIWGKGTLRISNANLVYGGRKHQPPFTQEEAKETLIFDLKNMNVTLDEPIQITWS

On to `OC[C@@H]1[C@@H](O)[C@H](O)C[S@@+]1C[C@@H](O)[C@@H](O)CO` [Compound 1], for which the IC50 in assay [1] is 5.29 µM. The “IC50 (μg/ml) Maltose” value in assay [2] is 5.71 µg/mL.

For the compound `C[S+]1C[C@H](O)[C@@H](O)[C@@H]1CO` (stereo partly shown) [Compound 2], the IC50 in assay [1] is 339 µM. The “IC50 (μg/ml) Maltose” value in assay [2] was found to be 79.3 µg/mL.
